We go through 18 compounds from patent US20240092784A1, “CONDENSED HETEROCYCLIC COMPOUND” (NISSAN CHEMICAL CORPORATION, priority 2020, published 2024).

human SPR, sequence (P35270 whole entry): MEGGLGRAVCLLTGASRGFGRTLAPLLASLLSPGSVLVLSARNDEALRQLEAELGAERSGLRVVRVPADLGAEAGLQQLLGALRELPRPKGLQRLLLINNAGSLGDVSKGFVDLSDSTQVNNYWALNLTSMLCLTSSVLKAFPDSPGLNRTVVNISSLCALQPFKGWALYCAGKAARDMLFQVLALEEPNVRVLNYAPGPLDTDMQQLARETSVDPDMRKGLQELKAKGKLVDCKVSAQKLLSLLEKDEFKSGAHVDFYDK

One assay concerns the target human SPR (Homo sapiens (Human), UniProt P35270). Briefly: Evaluation Example 2: Measurement of human SPR inhibitory activity (seven concentrations, sepiapterin absorbance at 420 nm). The settings on record: Evaluation Example 2, seven concentrations 0.14 nM to 100 nM, 240 minutes at room temperature, read-out: IC50. It counts as biochemical. As to the method: Human SPR was prepared as described below. The full-length human SPR (1-261) cDNA was purchased from Eurofins Genomics as an artificially synthesized plasmid containing a DNA sequence optimized for the E. coli expression system so that the sequence of the expressed protein after transcription and translation matches the sequence described in UniprotKB (P35270).
Linearized insert and vector were prepared by PCR using primers designed for amplification of human SPR cDNA and primers designed to contain the thrombin recognition sequence of pET28a (Novagen) and a polyhistidine tag. Cloning was performed using In-Fusion (registered trademark) HD Cloning Kit (TaKaRa) to thereby construct a human SPR expression plasmid. The resultant human SPR expression plasmid was transformed into BL21 (DE3) competent cells (INVITROGEN).
The cells were inoculated into LB medium (1% triptone, 0.5% yeast extract, 1% sodium chloride) containing […] of kanamycin, and then precultured at 37° C. overnight. The precultured cells were inoculated into TB medium (1.2% triptone, 2.4% yeast extract, 9.4% dipotassium hydrogen phosphate, 2.2% potassium dihydrogen phosphate, 0.8% glycerin) containing […] of kanamycin, and the cultured at 37° C., to thereby induce SPR expression with 0.5 mM IPTG for four hours. After the induction, the cells were collected by centrifugation at 6,000 G for 30 minutes and washed with PBS, and the washing was discarded. The washed cells were suspended in buffer solution A (20 mM MES, pH 6.5, 100 mM sodium chloride, 1 mM DTT, 5 mM imidazole). Subsequently, the cell suspension was subjected to ultrasonic treatment to thereby homogenize the cells. The cell homogenate was clarified by centrifugation at 30,000 G for 60 minutes and then filtered with a […]. The filtrate was allowed to pass through HisTrapFF 5 mL column (GE Healthcare). The resin was washed with buffer A, and then gradient elution was performed with buffer B (20 mM MES, pH 6.5, 100 mM sodium chloride, 1 mM DTT, 500 mM imidazole). Thrombin was added to a fraction containing the SPR protein, and the mixture was dialyzed in buffer A overnight, to thereby cleave the tag. After removal of the thrombin by with Benzamidine Sepharose 4 FF (GE Healthcare), the resultant product was allowed to pass through the HisTrapFF 5 mL column, to thereby remove the tag, followed by concentration with Amicon Ultra 10,000 NMWL (Merck Millipore). The concentrate was purified by gel filtration using HiLoad 16/60 Superdex 75 pg (GE Healthcare) equilibrated with buffer C (20 mM MES, pH 6.5, 100 mM sodium chloride, 1 mM DTT). The fraction containing SPR protein was concentrated and then cryopreserved at −80° C.
Human SPR inhibitory activity was measured by using a 384-well low adsorption clear plate (Greiner) with buffer D containing 100 mM Tris-HCl (pH 7.5) (Thermo Fisher Scientific) and 0.01% bovine serum albumin (Sigma). A compound was diluted with DMSO to achieve seven different final concentrations; i.e., 0.14 nM, 0.41 nM, 1.23 nM, 3.7 nM, 11.1 nM, 33 nM, and 100 nM. A 1.5 μL aliquot of the compound solution prepared with DMSO was diluted with 250 μL of buffer D, and the thus-diluted solution was dispensed into the 384-well plate at 20 μL/well. Thereafter, human SPR was diluted with buffer D to 150 ng/mL and then dispensed into the 384-well plate at 20 μL/well. Subsequently, 40 μL of ultrapure water containing 120 μM sepiapterin (produced by the method described in L-Sepiapterin, Heterocycles, 2008, 76, 1329-1335 and WO 2013/168693) and 160 μM NADPH (Nacalai) was added to each well, and then reaction was initiated. The reaction mixture was incubated at room temperature for 240 minutes. Thereafter, in order to determine the amount of sepiapterin, the absorbance at 420 nm was measured by applying the 384-well plate to EnSpire multimode plate reader (Perkin Elmer). The percent inhibition (%) of human SPR by the test compound was calculated by the following formula.
As to `CC(C)Cn1c(=O)c(C(=O)NC2CC2)c(O)n2ncc(CNC(=O)C3CCC(F)(F)CC3)c12` [Synthesis Example 263, N-Cyclopropyl-3-((4,4-difluorocyclohexane-1-carboxamido)methyl)-7-hydroxy-4-isobutyl-5-oxo-4,5-dihydropyrazolo[1,5-a]pyrimidine-6-carboxamide], the IC50 amounted to 1220 pM.

On to `Cc1nccc(Nc2cc3n(CC(C)(C)C)c(=O)c(C(=O)NC4CC4)c(O)n3n2)n1` [Synthesis Example 334, N-Cyclopropyl-7-hydroxy-2-((2-methylpyrimidin-4-yl)amino)-4-neopentyl-5-oxo-4,5-dihydropyrazolo[1,5-a]pyrimidine-6-carboxamide], for which the IC50 came to 1000 pM. Same read-out and setting: under `Cc1nn2c(O)c(C(=O)NC3CC3)c(=O)n(CC3CCOCC3)c2c1/C=C/C(=O)N1CCOCC1` [compound 575, (E)-N-Cyclopropyl-7-hydroxy-2-methyl-3-(3-morpholino-3-oxoprop-1-en-1-yl)-5-oxo-4-((tetrahydro-2H-pyran-4-yl)methyl)-4,5-dihydropyrazolo[1,5-a]pyrimidine-6-carboxamide] stands 810 pM. Same read-out and setting: under `CC(C)Cn1c(=O)c(C(=O)NC2CC2)c(O)n2ncc(/C=C/C(=O)N3CCC[C@@H](CO)C3)c12` [compound 520, (R,E)-N-Cyclopropyl-7-hydroxy-3-(3-(3-(hydroxymethyl)piperidin-1-yl)-3-oxoprop-1-en-1-yl)-4-isobutyl-5-oxo-4,5-dihydropyrazolo[1,5-a]pyrimidine-6-carboxamide] stands 770 pM. Still for that read-out and setting: under `O=C(NC1CC1)c1c(O)n2ncc(/C=C/C(=O)N3CCOCC3)c2n(CC2(F)CC2)c1=O` [Synthesis Example 364, (E)-N-Cyclopropyl-4-((1-fluorocyclopropyl)methyl)-7-hydroxy-3-(3-morpholino-3-oxoprop-1-en-1-yl)-5-oxo-4,5-dihydropyrazolo[1,5-a]pyrimidine-6-carboxamide] stands 630 pM. On to `CC(C)(C)Cn1c(=O)c(C(=O)NC2CC2)c(O)n2nc(-c3c[nH]nc3C(N)=O)cc12` [Synthesis Example 312, 2-(3-Carbamoyl-1H-pyrazol-4-yl)-N-cyclopropyl-7-hydroxy-4-neopentyl-5-oxo-4,5-dihydropyrazolo[1,5-a]pyrimidine-6-carboxamide], for which the IC50 came to 1300 pM. On the same count and under the same terms, under `C[C@@H]1COCCN1C(=O)/C=C/c1cnn2c(O)c(C(=O)NC3CC3)c(=O)n(CC3(F)CC3)c12` [Synthesis Example 380, (R,E)-N-Cyclopropyl-4-((1-fluorocyclopropyl)methyl)-7-hydroxy-3-(3-(3-methylmorpholino)-3-oxoprop-1-en-1-yl)-5-oxo-4,5-dihydropyrazolo[1,5-a]pyrimidine-6-carboxamide] stands 760 pM; under `Cc1nn2c(O)c(C(=O)NC3CC3)c(=O)n(CC(C)(C)C)c2c1/C=C/C(=O)N1CCC[C@@H]1C(C)(C)O` [Synthesis Example 655, (R,E)-N-Cyclopropyl-7-hydroxy-3-(3-(2-(2-hydroxypropan-2-yl)pyrrolidin-1-yl)-3-oxoprop-1-en-1-yl)-2-methyl-4-neopentyl-5-oxo-4,5-dihydropyrazolo[1,5-a]pyrimidine-6-carboxamide], 1050 pM; under `Cc1nn2c(O)c(C(=O)NC3CC3)c(=O)n(CC(C)C)c2c1/C=C/C(=O)N1CCCC1C1CC1` (stereo not drawn) [Synthesis Example 619, (E)-N-Cyclopropyl-3-(3-(2-cyclopropylpyrrolidin-1-yl)-3-oxoprop-1-en-1-yl)-7-hydroxy-4-isobutyl-2-methyl-5-oxo-4,5-dihydropyrazolo[1,5-a]pyrimidine-6-carboxamide], 1580 pM. The same measure, in the same setting: under `CCOc1cnc(Nc2cc3n(CC(C)(C)C)c(=O)c(C(=O)NC4CC4)c(O)n3n2)cn1` [Synthesis Example 338, N-Cyclopropyl-2-((5-ethoxypyrazin-2-yl)amino)-7-hydroxy-4-neopentyl-5-oxo-4,5-dihydropyrazolo[1,5-a]pyrimidine-6-carboxamide] stands 2730 pM. Same read-out and setting: under `CC(C)Cn1c(=O)c(C(=O)NC2CC2)c(O)n2ncc(/C=C/C(=O)N3CCC(F)CC3)c12` [compound 463, (E)-N-Cyclopropyl-3-(3-(4-fluoropiperidin-1-yl)-3-oxoprop-1-en-1-yl)-7-hydroxy-4-isobutyl-5-oxo-4,5-dihydropyrazolo[1,5-a]pyrimidine-6-carboxamide] stands 970 pM. With `CC(C)Cn1c(=O)c(C(=O)NC2CC2)c(O)n2ncc(/C=C/C(=O)N3CCC(C(F)(F)F)C3)c12` (racemic) [compound 595, (E)-N-Cyclopropyl-7-hydroxy-4-isobutyl-5-oxo-3-(3-oxo-3-(3-(trifluoromethyl)pyrrolidin-1-yl)prop-1-en-1-yl)-4,5-dihydropyrazolo[1,5-a]pyrimidine-6-carboxamide (racemate)], the IC50 is 1540 pM. On the same count and under the same terms, under `CC(C)Cn1c(=O)c(C(=O)NC2CC2)c(O)n2ncc(/C=C/C(=O)N3C[C@H](C)O[C@@H](C)C3)c12` [compound 490, N-Cyclopropyl-3-((E)-3-((2S,6S)-2,6-dimethylmorpholino)-3-oxoprop-1-en-1-yl)-7-hydroxy-4-isobutyl-5-oxo-4,5-dihydropyrazolo[1,5-a]pyrimidine-6-carboxamide] stands 880 pM; under `CC(C)Cn1c(=O)c(C(=O)NC2CC2)c(O)n2ncc(/C=C/C(=O)N3CCC(OC4CCOCC4)CC3)c12` [compound 478, (E)-N-Cyclopropyl-7-hydroxy-4-isobutyl-5-oxo-3-(3-oxo-3-(4-((tetrahydro-2H-pyran-4-yl)oxy)piperidin-1-yl)prop-1-en-1-yl)-4,5-dihydropyrazolo[1,5-a]pyrimidine-6-carboxamide], 950 pM.

In the case of `C/C(=C\c1cnn2c(O)c(C(=O)NC3CC3)c(=O)n(CC(C)C)c12)C(=O)NC(C)C` [Synthesis Example 257, (E)-N-Cyclopropyl-7-hydroxy-4-isobutyl-3-(3-(isopropylamino)-2-methyl-3-oxoprop-1-en-1-yl)-5-oxo-4,5-dihydropyrazolo[1,5-a]pyrimidine-6-carboxamide], the IC50 came out at 1010 pM. Still for that read-out and setting: under `CCOC(=O)/C=C/c1c(NC(=O)OC(C)(C)C)nn2c(O)c(C(=O)NC3CC3)c(=O)n(CC(C)C)c12` [Synthesis Example 412, Ethyl (E)-3-(2-((tert-butoxycarbonyl)amino)-6-(cyclopropylcarbamoyl)-7-hydroxy-4-isobutyl-5-oxo-4,5-dihydropyrazolo[1,5-a]pyrimidin-3-yl)acrylate] stands 1850 pM.

Staying with this assay, now noted: sepiapterin absorbance, Table 41, read-out: concentration at 50% inhibition of human SPR (IC50).
As for `CC(C)Cn1c(=O)c(C(=O)NC2CC2)c(O)n2ncc(/C=C/C(=O)N3C4CCC3CC(F)(F)C4)c12` [Synthesis Example 719, (E)-N-Cyclopropyl-3-(3-(3,3-difluoro-8-azabicyclo[3.2.1]octan-8-yl)-3-oxoprop-1-en-1-yl)-7-hydroxy-4-isobutyl-5-oxo-4,5-dihydropyrazolo[1,5-a]pyrimidine-6-carboxamide], the IC50 amounted to 770 pM. On the same count and under the same terms, under `CC(C)Cn1c(=O)c(C(=O)NC2CC2)c(O)n2ncc(/C=C/C(=O)N3CC(C#N)C3)c12` [Synthesis Example 734, (E)-3-(3-(3-Cyanoazetidin-1-yl)-3-oxoprop-1-en-1-yl)-N-cyclopropyl-7-hydroxy-4-isobutyl-5-oxo-4,5-dihydropyrazolo[1,5-a]pyrimidine-6-carboxamide] stands 730 pM.
